Key:
[1] = Pharmacokinetics of osimertinib in rats after pretreatment with avitinib; type: in vivo, Sprague-Dawley rats
wild-type EGFR = conditions: cited from earlier work
[2] = Metabolic stability of osimertinib in RLMs; type: in vitro ADME, rat; conditions: rat, rat liver microsomes, pH 7.4
[3] = system: rat liver microsomes (RLM); test: Metabolic stability of osimertinib in RLMs; type: in vitro ADME; conditions: osimertinib incubation with RLMs
[4] = system: osimertinib metabolism in rat liver microsomes; test: Inhibition by avitinib of osimertinib metabolism in rat liver microsomes; type: in vitro ADME; conditions: pH 7.4, probe osimertinib 0.01 μM
[5] = avitinib multiple doses group vs control
[6] = avitinib single dose group vs control

SMILES | decrease of CLz/F vs control [1, 5] [%] | increase of AUC(0-t) vs control [1, 5] [fold] | increase of AUC(0-∞) vs control [1, 5] [fold] | increase of Cmax vs control [1, 5] [fold] | increase of MRT(0-t) vs control [1, 5] [fold] | increase of Tmax vs control [1, 5] [fold] | decrease of CLz/F vs control [1, 6] [%] | increase of AUC(0-t) vs control [1, 6] [fold] | increase of AUC(0-∞) vs control [1, 6] [fold] | increase of Cmax vs control [1, 6] [fold] | increase of MRT(0-t) vs control [1, 6] [fold] | increase of Tmax vs control [1, 6] [fold] | inhibitory effect on the wild-type EGFR protein (wild-type EGFR) | half-life at 0.01 μM [2] [min] | Slope (Ln remaining percent vs incubation time) [3] | effect on wild-type EGFR (wild-type EGFR) | IC50 [4] [µM]
C=CC(=O)Nc1cc(Nc2nccc(-c3cn(C)c4ccccc34)n2)c(OC)cc1N(C)CCN(C)C [osimertinib] | 52 | 1.91 | 1.92 | 1.66 | 1.39 | 1.74 | 44 | 2.35 | 2.38 | 1.72 | 1.31 | 1.48 | weak inhibitory effect | 33.6 | 0.02062 | – | –
C=CC(=O)Nc1cccc(Oc2nc(Nc3ccc(N4CCN(C)CC4)c(F)c3)nc3[nH]ccc23)c1 [avitinib] | – | – | – | – | – | – | – | – | – | – | – | – | – | – | – | no effects | 27.6

From PMC7529555 (Thoracic Cancer, 2020)
